Assay results reported in patent publication EP4722212A1, “NOVEL COMPOUND FOR INHIBITING PROTEIN KINASES AND PHARMACEUTICAL COMPOSITION COMPRISING SAME” (Magicbullettherapeutics Co., Ltd., priority 2023, dated 2024).
Where two headings read alike, the source gives them in different places.

Legend:
Assay in all cases: Kinase panel
Type in all cases: biochemical
[1] = target: EPHAS (Homo sapiens, UniProt P29322); details: read-out: residual enzyme activity
How it was run: (§1)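 Each listed kinase was assayed biochemically in the presence of 1 µM compound, and the calculated value is residual enzyme activity. Identification criterion was inhibition reaching 60% or more.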

[2] = target: EPHB2 (Homo sapiens, UniProt P29323); details: EPHB2, 1 µM; read-out: residual enzyme activity
How it was run: as §1

[3] = target: HIPK3 (Homo sapiens, UniProt Q9H422); details: HIPK3, 1 µM; read-out: residual enzyme activity
How it was run: as §1

[4] = target: ULK3 (Homo sapiens, UniProt Q6PHR2); details: ULK3, 1 µM; read-out: residual enzyme activity
How it was run: as §1

[5] = target: PKA (Homo sapiens, UniProt P17612); details: read-out: residual enzyme activity
How it was run: as §1

[6] = target: LIMK2 (Homo sapiens, UniProt P53671); details: LIMK2, 1 µM; read-out: residual enzyme activity
How it was run: as §1

[7] = target: P70S6KB/RPS6KB2 (Homo sapiens, UniProt Q9UBS0); details: read-out: residual enzyme activity
How it was run: as §1

[8] = target: LRRK2 (Homo sapiens, UniProt Q5S007); details: LRRK2, 1 µM; read-out: residual enzyme activity
How it was run: as §1

[9] = target: PKG1B (Homo sapiens, UniProt Q13976); details: read-out: residual enzyme activity
How it was run: as §1

[10] = target: PASK (Homo sapiens, UniProt Q96RG2); details: read-out: residual enzyme activity
How it was run: as §1

[11] = target: ALK4/ACVR1B (Homo sapiens, UniProt P36896); details: read-out: residual enzyme activity
How it was run: as §1

[12] = target: FGFR1 (Homo sapiens, UniProt P11362); details: FGFR1, 1 µM; read-out: residual enzyme activity
How it was run: as §1

[13] = target: MEK5 (Homo sapiens, UniProt Q13163); details: MEK5, 1 µM; read-out: residual enzyme activity
How it was run: as §1

[14] = target: MEK1 (Homo sapiens, UniProt Q02750); details: MEK1, 1 µM; read-out: residual enzyme activity
How it was run: as §1

[15] = target: GRK7 (Homo sapiens, UniProt Q8WTQ7); details: GRK7, 1 µM; read-out: residual enzyme activity
How it was run: as §1

[16] = target: PRKX (Homo sapiens, UniProt P51817); details: read-out: residual enzyme activity
How it was run: as §1

[17] = target: CKIEPSILON (Homo sapiens, UniProt P49674); details: read-out: residual enzyme activity
How it was run: as §1

[18] = target: MASTL (Homo sapiens, UniProt Q96GX5); details: read-out: residual enzyme activity
How it was run: as §1

[19] = target: MELK (Homo sapiens, UniProt Q14680); details: read-out: residual enzyme activity
How it was run: as §1

[20] = target: GSK3A (Homo sapiens, UniProt P49840); details: read-out: residual enzyme activity
How it was run: as §1

[21] = target: DMPK (Homo sapiens, UniProt Q09013); details: read-out: residual enzyme activity
How it was run: as §1

[22] = target: CAMKK1 (Homo sapiens, UniProt Q8N5S9); details: CAMKK1, 1 µM; read-out: residual enzyme activity
How it was run: as §1

[23] = target: CTK/MATK (Homo sapiens, UniProt P42679); details: read-out: residual enzyme activity
How it was run: as §1

[24] = target: ARK5/NUAK1 (Homo sapiens, UniProt O60285); details: read-out: residual enzyme activity
How it was run: as §1

[25] = target: CAMK1B (Homo sapiens, UniProt Q6P2M8); details: read-out: residual enzyme activity
How it was run: as §1

[26] = target: ALK2/ACVR1 (Homo sapiens, UniProt Q04771); details: ALK2/ACVR1, 1 µM; read-out: residual enzyme activity
How it was run: as §1

[27] = target: MAK (Homo sapiens, UniProt P20794); details: read-out: residual enzyme activity
How it was run: as §1

[28] = target: TTBK2 (Homo sapiens, UniProt Q6IQ55); details: TTBK2, 1 µM; read-out: residual enzyme activity
How it was run: as §1

[29] = target: MAPKAPK3 (Homo sapiens, UniProt Q16644); details: MAPKAPK3, 1 µM; read-out: residual enzyme activity
How it was run: as §1

[30] = target: MARK2/PAR-IBA (Homo sapiens, UniProt Q7KZI7); details: read-out: residual enzyme activity
How it was run: as §1

[31] = target: LKB1 (Homo sapiens, UniProt Q15831); details: LKB1, 1 µM; read-out: residual enzyme activity
How it was run: as §1

[32] = target: TEC (Homo sapiens, UniProt P42680); details: read-out: residual enzyme activity
How it was run: as §1

[33] = target: LYN (Homo sapiens, UniProt P07948); details: read-out: residual enzyme activity
How it was run: as §1

Sequence of GSK3A (P49840 whole entry, species assumed): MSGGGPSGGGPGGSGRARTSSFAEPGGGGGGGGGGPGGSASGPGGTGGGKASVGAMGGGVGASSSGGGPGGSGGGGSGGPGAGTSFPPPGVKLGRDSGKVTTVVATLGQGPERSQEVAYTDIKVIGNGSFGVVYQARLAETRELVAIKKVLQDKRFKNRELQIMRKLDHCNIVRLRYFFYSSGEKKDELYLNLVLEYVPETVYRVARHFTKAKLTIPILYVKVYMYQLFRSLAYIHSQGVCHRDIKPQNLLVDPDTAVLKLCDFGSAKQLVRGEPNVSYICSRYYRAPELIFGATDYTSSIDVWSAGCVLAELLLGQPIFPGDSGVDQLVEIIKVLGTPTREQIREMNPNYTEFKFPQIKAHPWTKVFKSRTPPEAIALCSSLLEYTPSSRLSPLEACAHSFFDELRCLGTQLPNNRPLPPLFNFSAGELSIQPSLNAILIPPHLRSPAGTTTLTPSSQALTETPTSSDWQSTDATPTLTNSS
Sequence of P70S6KB/RPS6KB2 (Q9UBS0 whole entry): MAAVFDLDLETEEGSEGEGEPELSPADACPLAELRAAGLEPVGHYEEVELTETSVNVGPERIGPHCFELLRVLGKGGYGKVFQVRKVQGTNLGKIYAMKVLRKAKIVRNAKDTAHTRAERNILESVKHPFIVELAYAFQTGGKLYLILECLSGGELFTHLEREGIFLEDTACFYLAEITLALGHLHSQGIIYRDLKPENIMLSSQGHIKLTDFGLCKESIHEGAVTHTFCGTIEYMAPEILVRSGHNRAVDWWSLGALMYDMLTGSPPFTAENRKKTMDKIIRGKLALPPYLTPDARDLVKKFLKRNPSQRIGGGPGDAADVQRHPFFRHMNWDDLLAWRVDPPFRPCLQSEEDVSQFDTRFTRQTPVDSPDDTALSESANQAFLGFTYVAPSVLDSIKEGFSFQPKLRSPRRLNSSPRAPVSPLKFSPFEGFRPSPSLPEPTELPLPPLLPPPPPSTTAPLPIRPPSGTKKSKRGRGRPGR
Sequence of MAPKAPK3 (Q16644 whole entry, species assumed): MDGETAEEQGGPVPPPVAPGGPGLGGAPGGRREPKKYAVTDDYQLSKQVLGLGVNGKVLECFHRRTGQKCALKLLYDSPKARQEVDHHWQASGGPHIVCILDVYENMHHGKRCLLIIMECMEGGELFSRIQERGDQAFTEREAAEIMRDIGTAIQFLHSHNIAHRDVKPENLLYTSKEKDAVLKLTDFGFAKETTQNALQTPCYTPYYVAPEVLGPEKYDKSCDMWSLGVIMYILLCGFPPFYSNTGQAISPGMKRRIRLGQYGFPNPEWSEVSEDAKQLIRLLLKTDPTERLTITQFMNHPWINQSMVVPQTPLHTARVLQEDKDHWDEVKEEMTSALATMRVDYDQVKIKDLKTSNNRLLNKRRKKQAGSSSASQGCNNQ
Sequence of DMPK (Q09013 whole entry, species assumed): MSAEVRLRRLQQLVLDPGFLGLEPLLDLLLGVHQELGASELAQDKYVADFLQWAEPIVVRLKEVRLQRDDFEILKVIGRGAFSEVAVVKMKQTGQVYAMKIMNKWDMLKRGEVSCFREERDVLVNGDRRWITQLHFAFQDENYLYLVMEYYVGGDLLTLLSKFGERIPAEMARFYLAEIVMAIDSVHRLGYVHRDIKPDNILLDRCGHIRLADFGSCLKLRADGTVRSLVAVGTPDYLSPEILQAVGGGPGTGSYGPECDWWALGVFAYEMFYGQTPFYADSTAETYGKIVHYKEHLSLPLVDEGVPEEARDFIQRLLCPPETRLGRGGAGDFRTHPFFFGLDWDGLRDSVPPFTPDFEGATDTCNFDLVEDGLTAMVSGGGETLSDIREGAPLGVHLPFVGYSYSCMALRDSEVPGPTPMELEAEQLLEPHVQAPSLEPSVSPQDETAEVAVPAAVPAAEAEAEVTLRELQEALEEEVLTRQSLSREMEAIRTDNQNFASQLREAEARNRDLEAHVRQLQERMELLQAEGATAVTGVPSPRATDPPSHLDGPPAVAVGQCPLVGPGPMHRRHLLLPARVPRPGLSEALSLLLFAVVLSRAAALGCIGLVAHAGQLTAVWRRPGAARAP
Sequence of MEK1 (Q02750 whole entry, species assumed): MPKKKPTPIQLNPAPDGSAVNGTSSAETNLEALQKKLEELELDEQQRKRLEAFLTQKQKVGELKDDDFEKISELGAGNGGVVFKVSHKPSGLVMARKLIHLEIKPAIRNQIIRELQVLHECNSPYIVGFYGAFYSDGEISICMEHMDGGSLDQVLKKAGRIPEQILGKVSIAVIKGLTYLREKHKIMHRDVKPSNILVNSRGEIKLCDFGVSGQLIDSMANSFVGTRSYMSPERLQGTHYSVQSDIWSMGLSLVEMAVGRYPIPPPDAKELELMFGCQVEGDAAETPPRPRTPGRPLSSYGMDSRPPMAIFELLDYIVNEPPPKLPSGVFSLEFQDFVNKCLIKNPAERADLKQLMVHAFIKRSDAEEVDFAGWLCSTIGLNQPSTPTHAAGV
Sequence of LRRK2 (Q5S007 whole entry, species assumed): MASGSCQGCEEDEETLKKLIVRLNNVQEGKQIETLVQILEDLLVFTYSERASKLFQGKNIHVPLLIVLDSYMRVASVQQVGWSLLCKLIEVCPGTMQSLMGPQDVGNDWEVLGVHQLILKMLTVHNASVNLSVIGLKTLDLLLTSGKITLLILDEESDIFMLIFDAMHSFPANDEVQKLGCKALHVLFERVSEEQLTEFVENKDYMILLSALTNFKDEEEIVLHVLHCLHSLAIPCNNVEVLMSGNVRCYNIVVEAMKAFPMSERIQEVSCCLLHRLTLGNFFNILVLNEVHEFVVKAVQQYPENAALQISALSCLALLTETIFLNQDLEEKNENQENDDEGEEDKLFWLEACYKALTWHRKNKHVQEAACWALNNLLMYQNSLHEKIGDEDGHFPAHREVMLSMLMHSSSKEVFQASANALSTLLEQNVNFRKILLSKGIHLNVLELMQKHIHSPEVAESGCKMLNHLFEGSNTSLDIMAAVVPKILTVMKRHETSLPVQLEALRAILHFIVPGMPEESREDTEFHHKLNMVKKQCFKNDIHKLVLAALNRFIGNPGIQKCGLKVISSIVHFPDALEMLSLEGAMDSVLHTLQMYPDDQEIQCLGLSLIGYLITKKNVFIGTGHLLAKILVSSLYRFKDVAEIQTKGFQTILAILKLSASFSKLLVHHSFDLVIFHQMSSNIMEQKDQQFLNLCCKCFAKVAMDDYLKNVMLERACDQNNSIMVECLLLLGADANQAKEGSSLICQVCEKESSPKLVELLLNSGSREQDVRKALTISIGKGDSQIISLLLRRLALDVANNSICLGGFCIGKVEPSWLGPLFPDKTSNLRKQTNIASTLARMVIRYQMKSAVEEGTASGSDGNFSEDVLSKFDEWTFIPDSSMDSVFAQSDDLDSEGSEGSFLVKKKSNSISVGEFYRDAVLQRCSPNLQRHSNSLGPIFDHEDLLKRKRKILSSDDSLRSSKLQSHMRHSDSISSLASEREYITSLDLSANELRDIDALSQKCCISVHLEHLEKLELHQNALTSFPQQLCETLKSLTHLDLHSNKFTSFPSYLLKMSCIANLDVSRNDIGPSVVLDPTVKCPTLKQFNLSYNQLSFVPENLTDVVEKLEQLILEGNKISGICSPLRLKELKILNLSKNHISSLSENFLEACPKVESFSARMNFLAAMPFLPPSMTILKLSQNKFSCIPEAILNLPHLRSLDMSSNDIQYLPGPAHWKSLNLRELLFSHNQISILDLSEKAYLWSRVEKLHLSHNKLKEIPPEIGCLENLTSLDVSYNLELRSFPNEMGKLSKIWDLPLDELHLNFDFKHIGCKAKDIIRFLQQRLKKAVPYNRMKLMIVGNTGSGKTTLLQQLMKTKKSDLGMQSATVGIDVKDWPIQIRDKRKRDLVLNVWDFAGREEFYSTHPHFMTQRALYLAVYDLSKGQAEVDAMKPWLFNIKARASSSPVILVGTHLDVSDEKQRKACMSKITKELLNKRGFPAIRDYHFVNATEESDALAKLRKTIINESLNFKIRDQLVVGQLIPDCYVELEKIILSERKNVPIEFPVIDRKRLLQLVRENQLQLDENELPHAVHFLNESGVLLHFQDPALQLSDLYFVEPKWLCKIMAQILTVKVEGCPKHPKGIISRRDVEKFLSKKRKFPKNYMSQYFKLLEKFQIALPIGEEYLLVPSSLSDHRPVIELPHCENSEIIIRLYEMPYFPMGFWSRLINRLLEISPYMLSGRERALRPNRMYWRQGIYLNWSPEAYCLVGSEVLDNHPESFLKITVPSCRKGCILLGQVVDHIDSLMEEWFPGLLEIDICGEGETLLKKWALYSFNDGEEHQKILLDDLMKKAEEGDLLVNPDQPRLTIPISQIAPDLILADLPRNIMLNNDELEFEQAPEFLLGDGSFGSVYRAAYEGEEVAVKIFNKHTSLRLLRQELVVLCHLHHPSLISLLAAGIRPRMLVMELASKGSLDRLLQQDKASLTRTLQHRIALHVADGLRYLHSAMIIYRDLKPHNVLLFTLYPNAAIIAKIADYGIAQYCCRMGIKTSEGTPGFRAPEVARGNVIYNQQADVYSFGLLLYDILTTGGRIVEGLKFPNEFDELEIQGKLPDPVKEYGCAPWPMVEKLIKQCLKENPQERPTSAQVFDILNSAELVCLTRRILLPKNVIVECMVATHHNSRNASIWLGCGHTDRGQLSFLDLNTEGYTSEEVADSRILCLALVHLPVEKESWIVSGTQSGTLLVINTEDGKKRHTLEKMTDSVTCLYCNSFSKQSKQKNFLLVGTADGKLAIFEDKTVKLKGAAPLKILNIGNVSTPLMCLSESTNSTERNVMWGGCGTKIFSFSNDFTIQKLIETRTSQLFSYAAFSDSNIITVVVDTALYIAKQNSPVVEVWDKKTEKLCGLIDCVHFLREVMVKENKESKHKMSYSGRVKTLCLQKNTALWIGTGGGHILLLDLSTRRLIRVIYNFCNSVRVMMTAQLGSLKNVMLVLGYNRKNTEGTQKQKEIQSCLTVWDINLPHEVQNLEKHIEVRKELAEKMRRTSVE

Row | Compound | remaining activity at 1 µM [2] [%] | remaining activity at 1 µM [3] [%] | remaining activity at 1 µM [4] [%] | remaining activity at 1 µM [5] [%] | remaining activity at 1 µM [6] [%] | remaining activity at 1 µM [8] [%] | remaining activity at 1 µM [10] [%] | remaining activity at 1 µM [11] [%] | remaining activity at 1 µM [12] [%] | remaining activity at 1 µM [13] [%] | remaining activity at 1 µM [14] [%] | remaining activity at 1 µM [15] [%] | remaining activity at 1 µM [16] [%] | remaining activity at 1 µM [18] [%] | remaining activity at 1 µM [19] [%] | remaining activity at 1 µM [21] [%] | remaining activity at 1 µM [22] [%] | remaining activity at 1 µM [23] [%] | remaining activity at 1 µM [26] [%] | remaining activity at 1 µM [27] [%] | also measured
1 | Cc1cn(-c2cc(C(=O)Nc3ccc(C)c(N4Cc5cnc(NC6CC6)nc5C5(CC5)C4=O)c3)cc(C(F)(F)F)c2)cn1 [Compound 8, N-(3-(2'-(cyclopropylamino)-7'-oxo-5'H-spiro[cyclopropane-1,8'-pyrido[4,3-d]pyrimidine]-6'(7'H)-yl)-4-methylphenyl)-3-(4-methyl-1H-imidazol-1-yl)-5-(trifluoromethyl)benzamide] | ≤ 40 | > 40 | > 40 | > 40 | ≤ 40 | > 40 | > 40 | > 40 | ≤ 40 | ≤ 40 | > 40 | > 40 | > 40 | > 40 | > 40 | > 40 | > 40 | > 40 | > 40 | > 40 | remaining activity at 1 µM ([1]; EPHAS (row 110), 1 µM): ≤ 40%; remaining activity at 1 µM ([7]; P70S6KB/RPS6KB2, 1 µM): > 40%; remaining activity at 1 µM ([9]; PKG1B): > 40%; remaining activity at 1 µM ([17]; CKIEPSILON): > 40%; remaining activity at 1 µM ([20]; GSK3A): > 40%; remaining activity at 1 µM ([24]; ARK5/NUAK1, 1 µM): > 40%; remaining activity at 1 µM ([25]; CAMK1B): > 40%; remaining activity at 1 µM [28]: > 40%; remaining activity at 1 µM [29]: > 40%; remaining activity at 1 µM ([30]; MARK2/PAR-IBA): > 40%; remaining activity at 1 µM [31]: > 40%; remaining activity at 1 µM [32]: ≤ 40%; remaining activity at 1 µM [33]: ≤ 40%
2 | Cc1ccc(Nc2ncc3c(n2)C2(CC2)C(=O)N(c2cc(NC(=O)c4cccc(C(F)(F)F)c4)ccc2C)C3)cn1 [Compound 51, N-(4-methyl-3-(2'-((6-methylpyridin-3-yl)amino)-7'-oxo-5'H-spiro[cyclopropane-1,8'-pyrido[4,3-d]pyrimidine]-6'(7'H)-yl)phenyl)-3-(trifluoromethyl)benzamide] | ≤ 40 | > 40 | > 40 | > 40 | ≤ 40 | ≤ 40 | > 40 | > 40 | ≤ 40 | ≤ 40 | > 40 | > 40 | > 40 | > 40 | > 40 | > 40 | > 40 | > 40 | > 40 | > 40 | remaining activity at 1 µM ([1]; EPHA8, 1 µM): ≤ 40%; remaining activity at 1 µM ([7]; p70S6Kb/RPS6KB2, 1 µM): > 40%; remaining activity at 1 µM ([9]; PKG1b): > 40%; remaining activity at 1 µM ([17]; CKlepsilon): > 40%; remaining activity at 1 µM ([20]; GSK3a): > 40%; remaining activity at 1 µM ([24]; ARKS/NUAKl, 1 µM): > 40%; remaining activity at 1 µM ([25]; CAMK1b): > 40%; remaining activity at 1 µM [28]: > 40%; remaining activity at 1 µM [29]: > 40%; remaining activity at 1 µM ([30]; MARK2/PAR-IBa): > 40%; remaining activity at 1 µM [31]: > 40%; remaining activity at 1 µM [32]: ≤ 40%; remaining activity at 1 µM [33]: ≤ 40%
